Data on 15 compounds can be found in ChEMBL document CHEMBL6114953, “De novo discovery of cyclic peptide inhibitors of IL-11 signaling” (Bioorg Med Chem, 2025).

SMILES strings stand for the structures. Where a SMILES comes first, the peptide text is derived from it. Bridges are numbered along the chain shown (N, C = ends). [ ]: non-standard residue; d: D form. ξ: configuration not given here. ξH = NC(Cc1c[nH]cn1)C(=O)O; Nle = CCCC[C@H](N)C(=O)O

This experiment in a line: Inhibition of his-tagged recombinant human IL-11 (22 to 199 residues) expressed in HEK293 cells/biotinylated recombinant human IL-11Ralpha (24 to 370 residues) expressed in HEK293 cells incubated for 1 hr by AlphaLISA assay. The experiment is classed as cell-based.
For `CC(=O)N[C@@H](Cc1ccc(O)cc1)C(=O)N[C@@H](Cc1c[nH]c2ccccc12)C(=O)N[C@H]1CSSC[C@@H](C(=O)N[C@@H](Cc2c[nH]c3ccccc23)C(=O)N[C@@H](CCCNC(=N)N)C(N)=O)NC(=O)[C@H](C(C)C)NC(=O)[C@H]([C@@H](C)O)NC(=O)[C@H]([C@@H](C)O)NC(=O)[C@H](Cc2ccc(O)cc2)NC(=O)[C@H](Cc2ccc(O)cc2)NC(=O)[C@H](CC(C)C)NC(=O)[C@H](Cc2c[nH]cn2)NC(=O)[C@H](CO)NC1=O` (Ac-YWCSHLYYTTVCWR-NH2; disulfide 3-12), the Ki is 1900 nM.

With `CC(=O)N[C@@H](Cc1ccc(O)cc1)C(=O)N[C@@H](Cc1c[nH]c2ccccc12)C(=O)N[C@H]1CSSC[C@@H](C(=O)N[C@@H](Cc2c[nH]c3ccccc23)C(=O)N[C@@H](CCCNC(=N)N)C(N)=O)NC(=O)[C@H](C(C)C)NC(=O)[C@H]([C@@H](C)O)NC(=O)[C@H]([C@@H](C)O)NC(=O)[C@H](Cc2ccc(O)cc2)NC(=O)[C@H](Cc2ccc(O)cc2)NC(=O)CNC(=O)[C@H](Cc2c[nH]cn2)NC(=O)[C@H](CO)NC1=O` (Ac-YWCSHGYYTTVCWR-NH2; disulfide 3-12), the Ki was 1700 nM. As for `CSCC[C@@H]1NC(=O)[C@H](Cc2c[nH]cn2)NC(=O)[C@H](CO)NC(=O)[C@@H](NC(=O)[C@H](Cc2c[nH]c3ccccc23)NC(=O)[C@H](Cc2ccc(O)cc2)NC(=O)[C@H](Cc2ccccc2)NC(C)=O)CSSC[C@@H](C(=O)N[C@@H](Cc2c[nH]c3ccccc23)C(=O)N[C@@H](CCCNC(=N)N)C(N)=O)NC(=O)[C@H](C(C)C)NC(=O)[C@H]([C@@H](C)O)NC(=O)[C@H]([C@@H](C)O)NC(=O)[C@H](Cc2ccc(O)cc2)NC(=O)[C@H](Cc2ccc(O)cc2)NC1=O` (Ac-FYWCSHMYYTTVCWR-NH2; disulfide 4-13), the figure is 330 nM. Next, `CCCC[C@@H]1NC(=O)[C@H](Cc2c[nH]cn2)NC(=O)[C@H](CO)NC(=O)[C@@H](NC(=O)[C@H](Cc2c[nH]c3ccccc23)NC(=O)[C@H](Cc2ccc(O)cc2)NC(=O)[C@H](Cc2ccccc2)NC(=O)[C@H](CCC(N)=O)NC(=O)[C@@H](NC(=O)[C@@H](NC(=O)[C@H](CCC(N)=O)NC(=O)[C@H](C)N)[C@@H](C)O)C(C)C)CSSC[C@@H](C(=O)N[C@@H](Cc2c[nH]c3ccccc23)C(=O)N[C@@H](CCCNC(=N)N)C(N)=O)NC(=O)[C@H](C(C)C)NC(=O)[C@H]([C@@H](C)O)NC(=O)[C@H]([C@@H](C)O)NC(=O)[C@H](Cc2ccc(O)cc2)NC(=O)[C@H](Cc2ccc(O)cc2)NC1=O` (H-AQTVQFYWCSH[Nle]YYTTVCWR-NH2; disulfide 9-18): 260 nM.

As to `CSCC[C@@H]1NC(=O)[C@H](Cc2c[nH]cn2)NC(=O)[C@H](CO)NC(=O)[C@@H](NC(=O)[C@H](Cc2c[nH]c3ccccc23)NC(C)=O)CSSC[C@@H](C(=O)N[C@@H](Cc2c[nH]c3ccccc23)C(=O)N[C@@H](CCCNC(=N)N)C(N)=O)NC(=O)[C@H](C(C)C)NC(=O)[C@H]([C@@H](C)O)NC(=O)[C@H]([C@@H](C)O)NC(=O)[C@H](Cc2ccc(O)cc2)NC(=O)[C@H](Cc2ccc(O)cc2)NC1=O` (Ac-WCSHMYYTTVCWR-NH2; disulfide 2-11), the Ki was determined as 3200 nM. As for `CSCC[C@@H]1NC(=O)[C@H](Cc2c[nH]cn2)NC(=O)[C@H](CO)NC(=O)[C@@H](NC(=O)[C@H](Cc2c[nH]c3ccccc23)NC(=O)[C@H](Cc2ccc(O)cc2)NC(=O)[C@H](Cc2ccccc2)NC(=O)[C@H](CCC(N)=O)NC(=O)[C@@H](NC(C)=O)C(C)C)CSSC[C@@H](C(=O)N[C@@H](Cc2c[nH]c3ccccc23)C(=O)N[C@@H](CCCNC(=N)N)C(N)=O)NC(=O)[C@H](C(C)C)NC(=O)[C@H]([C@@H](C)O)NC(=O)[C@H]([C@@H](C)O)NC(=O)[C@H](Cc2ccc(O)cc2)NC(=O)[C@H](Cc2ccc(O)cc2)NC1=O` (Ac-VQFYWCSHMYYTTVCWR-NH2; disulfide 6-15), the figure is 700 nM; as for `CSCC[C@@H]1NC(=O)[C@H](Cc2c[nH]cn2)NC(=O)[C@H](CO)NC(=O)[C@@H](NC(=O)[C@H](Cc2c[nH]c3ccccc23)NC(=O)[C@H](Cc2ccc(O)cc2)NC(=O)[C@H](Cc2ccccc2)NC(=O)[C@H](CCC(N)=O)NC(=O)[C@@H](NC(=O)[C@@H](NC(=O)[C@H](CCC(N)=O)NC(C)=O)[C@@H](C)O)C(C)C)CSSC[C@@H](C(=O)N[C@@H](Cc2c[nH]c3ccccc23)C(=O)N[C@@H](CCCNC(=N)N)C(N)=O)NC(=O)[C@H](C(C)C)NC(=O)[C@H]([C@@H](C)O)NC(=O)[C@H]([C@@H](C)O)NC(=O)[C@H](Cc2ccc(O)cc2)NC(=O)[C@H](Cc2ccc(O)cc2)NC1=O` (Ac-QTVQFYWCSHMYYTTVCWR-NH2; disulfide 8-17), 800 nM; as for `CC(=O)NCC(=O)N[C@@H](Cc1c[nH]c2ccccc12)C(=O)N[C@H]1CSSC[C@@H](C(=O)N[C@@H](CC(C)C)C(=O)N[C@@H](CCCNC(=N)N)C(N)=O)NC(=O)[C@H](Cc2c[nH]c3ccccc23)NC(=O)[C@H](C)NC(=O)[C@H](CO)NC(=O)[C@H](Cc2ccc(O)cc2)NC(=O)[C@H](Cc2ccc(O)cc2)NC(=O)CNC(=O)[C@H](CCCCN)NC(=O)[C@H](Cc2c[nH]c3ccccc23)NC1=O` (Ac-GWCWKGYYSAWCLR-NH2; disulfide 3-12), 1100 nM. Next, `CC(C)C[C@@H]1NC(=O)CNC(=O)[C@H](Cc2ccccc2)NC(=O)[C@H](Cc2c[nH]c3ccccc23)NC(=O)[C@H](CCC(=O)O)NC(=O)[C@H](Cc2c[nH]c3ccccc23)NC(=O)[C@H]([C@@H](C)O)NC(=O)[C@@H]2CCCN2C(=O)[C@H](Cc2c[nH]cn2)NC(=O)[C@@H](NC(=O)[C@H](Cc2ccccc2)NC(=O)[C@H](CCC(=O)O)NC(=O)[C@@H](NC(=O)[C@@H](NC(=O)[C@H](CCC(=O)O)NC(=O)[C@H](C)N)[C@@H](C)O)C(C)C)CSSC[C@@H](C(N)=O)NC1=O` (H-AETVEFCHPTWEWFGLC-NH2; disulfide 7-17): 2400 nM; `CSCC[C@@H]1NC(=O)[C@H](Cc2c[nH]cn2)NC(=O)[C@H](CO)NC(=O)[C@@H](NC(=O)[C@H](Cc2c[nH]c3ccccc23)NC(=O)[C@H](Cc2ccc(O)cc2)NC(=O)[C@H](Cc2ccccc2)NC(=O)[C@H](CCC(N)=O)NC(=O)[C@@H](NC(=O)[C@@H](NC(=O)[C@H](CCC(N)=O)NC(=O)[C@H](C)N)[C@@H](C)O)C(C)C)CSSC[C@@H](C(=O)N[C@@H](Cc2c[nH]c3ccccc23)C(=O)N[C@@H](CCCNC(=N)N)C(N)=O)NC(=O)[C@H](C(C)C)NC(=O)[C@H]([C@@H](C)O)NC(=O)[C@H]([C@@H](C)O)NC(=O)[C@H](Cc2ccc(O)cc2)NC(=O)[C@H](Cc2ccc(O)cc2)NC1=O` (H-AQTVQFYWCSHMYYTTVCWR-NH2; disulfide 9-18): 180 nM. `CSCC[C@@H]1NC(=O)[C@H](Cc2c[nH]cn2)NC(=O)[C@H](CO)NC(=O)[C@@H](NC(=O)[C@H](Cc2c[nH]c3ccccc23)NC(=O)[C@H](Cc2ccc(O)cc2)NC(=O)[C@H](Cc2ccccc2)NC(=O)[C@H](CCC(=O)O)NC(=O)[C@@H](NC(=O)[C@@H](NC(=O)[C@H](CCC(=O)O)NC(=O)[C@H](C)N)[C@@H](C)O)C(C)C)CSSC[C@@H](C(=O)N[C@@H](Cc2c[nH]c3ccccc23)C(=O)N[C@@H](CCCNC(=N)N)C(N)=O)NC(=O)[C@H](C(C)C)NC(=O)[C@H]([C@@H](C)O)NC(=O)[C@H]([C@@H](C)O)NC(=O)[C@H](Cc2ccc(O)cc2)NC(=O)[C@H](Cc2ccc(O)cc2)NC1=O` (H-AETVEFYWCSHMYYTTVCWR-NH2; disulfide 9-18): the Ki was 3900 nM.

As for `CC(C)C[C@@H]1NC(=O)[C@H](Cc2c[nH]c3ccccc23)NC(=O)[C@@H](NC(=O)[C@H](Cc2ccccc2)NC(=O)[C@H](CCC(=O)O)NC(=O)[C@@H](NC(=O)[C@@H](NC(=O)[C@H](CCC(=O)O)NC(=O)[C@H](C)N)[C@@H](C)O)C(C)C)CSSC[C@@H](C(N)=O)NC(=O)[C@H](CCC(=O)O)NC(=O)[C@H](Cc2ccc(O)cc2)NC(=O)[C@H](Cc2c[nH]c3ccccc23)NC(=O)[C@H](Cc2ccc(O)cc2)NC(=O)C(Cc2c[nH]cn2)NC(=O)[C@H](Cc2c[nH]c3ccccc23)NC(=O)[C@@H]2CCCN2C1=O` (stereo not given in full) (H-AETVEFCWLPW[ξH]YWYEC-NH2; disulfide 7-17), the Ki is 1300 nM. As for `CC(C)C[C@@H]1NC(=O)[C@H](Cc2c[nH]c3ccccc23)NC(=O)[C@@H](NC(=O)[C@H](Cc2ccccc2)NC(=O)[C@H](CCC(=O)O)NC(=O)[C@@H](NC(=O)[C@@H](NC(=O)[C@H](CCC(=O)O)NC(=O)[C@H](C)N)[C@@H](C)O)C(C)C)CSSC[C@@H](C(N)=O)NC(=O)[C@H](CCC(N)=O)NC(=O)[C@H](CCC(=O)O)NC(=O)[C@H](Cc2c[nH]c3ccccc23)NC(=O)[C@H](Cc2c[nH]c3ccccc23)NC(=O)[C@H](CCC(N)=O)NC(=O)[C@H](Cc2ccccc2)NC(=O)[C@@H]2CCCN2C1=O` (H-AETVEFCWLPFQWWEQC-NH2; disulfide 7-17), the figure is 350 nM; as for `CSCC[C@@H]1NC(=O)[C@H](Cc2c[nH]cn2)NC(=O)[C@H](CO)NC(=O)[C@@H](NC(=O)[C@H](Cc2c[nH]c3ccccc23)NC(=O)[C@H](Cc2ccc(O)cc2)NC(=O)[C@H](Cc2ccccc2)NC(=O)[C@H](CCC(N)=O)NC(=O)[C@@H](NC(=O)[C@@H](NC(C)=O)[C@@H](C)O)C(C)C)CSSC[C@@H](C(=O)N[C@@H](Cc2c[nH]c3ccccc23)C(=O)N[C@@H](CCCNC(=N)N)C(N)=O)NC(=O)[C@H](C(C)C)NC(=O)[C@H]([C@@H](C)O)NC(=O)[C@H]([C@@H](C)O)NC(=O)[C@H](Cc2ccc(O)cc2)NC(=O)[C@H](Cc2ccc(O)cc2)NC1=O` (Ac-TVQFYWCSHMYYTTVCWR-NH2; disulfide 7-16), 900 nM; as for `CSCC[C@@H]1NC(=O)[C@H](Cc2c[nH]cn2)NC(=O)[C@H](CO)NC(=O)[C@@H](NC(=O)[C@H](Cc2c[nH]c3ccccc23)NC(=O)[C@H](Cc2ccc(O)cc2)NC(C)=O)CSSC[C@@H](C(N)=O)NC(=O)[C@H](C(C)C)NC(=O)[C@H]([C@@H](C)O)NC(=O)[C@H]([C@@H](C)O)NC(=O)[C@H](Cc2ccc(O)cc2)NC(=O)[C@H](Cc2ccc(O)cc2)NC1=O` (Ac-YWCSHMYYTTVC-NH2; disulfide 3-12), more than 28000 nM.
